According to ChEMBL document CHEMBL1201862, “PubChem BioAssay data set” (2004):
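The compound was tested at five concentrations on cells cultured in 96-well plates, with a 48-hour exposure period. Here, GI50 denotes the concentration required for 50% inhibition of growth.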 The source made the active and inactive calls. Cut-off read from the data, not from the text of the source: active = GI50 up to about 1.1 µM and inactive = higher.

How the values were obtained:
Experiment in all cases: DTP human tumour cell line panel, 48 h
M14 = test system: M14
UACC-62 = test system: UACC-62
SW-620 = test system: SW-620
IGROV-1 = test system: IGROV-1
OVCAR-3 = test system: OVCAR-3
PC-3 = test system: PC-3
OVCAR-8 = test system: OVCAR-8
MDA-N = test system: MDA-N
HCT-116 = test system: HCT-116
OVCAR-5 = test system: OVCAR-5
CAKI-1 = test system: CAKI-1
SF-539 = test system: SF-539
SN12C = test system: SN12C
BT-549 = test system: BT-549
Malme-3M = test system: Malme-3M
NCI/ADR-RES = test system: NCI/ADR-RES
OVCAR-4 = test system: OVCAR-4
LOX IMVI = test system: LOX IMVI
HCC 2998 = test system: HCC 2998
RPMI-8226 = test system: RPMI-8226

Measured: GI50

O=C(O)c1cc(-c2ccc3cc(O)c(O)cc3c2)ccc1O
inactive: M14 > 12.5 µM | UACC-62 > 12.5 µM | SW-620 > 12.5 µM | IGROV-1 > 12.5 µM | OVCAR-3 > 12.5 µM | PC-3 > 12.5 µM | OVCAR-8 > 12.5 µM | MDA-N 3.88 µM | HCT-116 > 12.5 µM | OVCAR-5 > 12.5 µM | CAKI-1 > 12.5 µM | SF-539 > 12.5 µM | SN12C > 12.5 µM | BT-549 > 12.5 µM | Malme-3M > 12.5 µM | NCI/ADR-RES > 12.5 µM

O=C(CCc1ccc(O)cc1)NCCc1ccc(O)cc1
inactive: M14 > 100 µM | UACC-62 > 100 µM | IGROV-1 > 100 µM | OVCAR-3 > 100 µM | OVCAR-4 > 100 µM | PC-3 > 100 µM | OVCAR-8 > 100 µM | LOX IMVI > 100 µM | MDA-N > 100 µM | HCT-116 > 100 µM | OVCAR-5 > 100 µM | CAKI-1 > 100 µM | SF-539 > 100 µM | SN12C > 100 µM | BT-549 62.4 µM | Malme-3M > 100 µM | HCC 2998 > 100 µM | NCI/ADR-RES > 100 µM

O=C1NC(=S)N/C1=C\c1ccc(Br)s1
inactive: UACC-62 28 µM | SW-620 > 100 µM | IGROV-1 93.5 µM | OVCAR-3 71.8 µM | OVCAR-4 53.1 µM | PC-3 94.2 µM | LOX IMVI > 100 µM | MDA-N > 100 µM | HCT-116 > 100 µM | OVCAR-5 > 100 µM | CAKI-1 70.6 µM | SN12C > 100 µM | RPMI-8226 27.7 µM | BT-549 40.4 µM | Malme-3M > 100 µM | HCC 2998 57.8 µM

N/C(=N/c1ccc(O)cc1)S(=O)(=O)O
inactive: M14 > 100 µM | UACC-62 > 100 µM | SW-620 > 100 µM | IGROV-1 > 100 µM | OVCAR-3 > 100 µM | OVCAR-4 > 100 µM | PC-3 > 100 µM | OVCAR-8 > 100 µM | LOX IMVI > 100 µM | MDA-N > 100 µM | HCT-116 > 100 µM | OVCAR-5 > 100 µM | CAKI-1 > 100 µM | SF-539 > 100 µM | SN12C > 100 µM | BT-549 > 100 µM | Malme-3M > 100 µM | HCC 2998 > 100 µM | NCI/ADR-RES > 100 µM

O=S(=O)(O)c1cc(/N=N/c2cccc3ccccc23)c(O)c2ncccc12
inactive: M14 47.8 µM | UACC-62 36.2 µM | SW-620 59.8 µM | IGROV-1 29.3 µM | OVCAR-3 22.5 µM | OVCAR-4 46 µM | PC-3 55.6 µM | OVCAR-8 > 100 µM | LOX IMVI 60.8 µM | MDA-N 58.3 µM | HCT-116 34.9 µM | OVCAR-5 72.8 µM | CAKI-1 > 100 µM | SF-539 56.1 µM | SN12C 60 µM | RPMI-8226 41.2 µM | BT-549 > 100 µM | NCI/ADR-RES 65.2 µM

COc1ccc(/C=C2\CCC(C)c3c2nc(N)c(C#N)c3-c2ccc(OC)c(OC)c2)cc1OC (stereo unspecified)
inactive: M14 32.3 µM | UACC-62 88.1 µM | SW-620 > 100 µM | IGROV-1 15.1 µM | OVCAR-3 9.29 µM | PC-3 2.92 µM | OVCAR-8 9.82 µM | LOX IMVI 66.4 µM | MDA-N 33.4 µM | HCT-116 8.81 µM | OVCAR-5 36.9 µM | CAKI-1 58.5 µM | SF-539 27.4 µM | SN12C > 100 µM | RPMI-8226 3.65 µM | BT-549 8 µM | Malme-3M 16.5 µM | NCI/ADR-RES 6.73 µM

C=CC(=O)Nc1ccc(NC(=O)C=C)c2c1C(=O)c1ccccc1C2=O
inactive: M14 29.6 µM | UACC-62 21.4 µM | SW-620 26.4 µM | IGROV-1 > 100 µM | OVCAR-3 35.6 µM | PC-3 40.8 µM | OVCAR-8 27.7 µM | LOX IMVI 5.07 µM | MDA-N 36.1 µM | HCT-116 62.8 µM | OVCAR-5 > 100 µM | SF-539 24.8 µM | SN12C 35.8 µM | RPMI-8226 3.03 µM | BT-549 29.9 µM | Malme-3M > 100 µM | HCC 2998 > 100 µM | NCI/ADR-RES > 100 µM

N#Cc1c2c([nH]c(=O)c1C#N)CCCC2
inactive: M14 > 100 µM | UACC-62 > 100 µM | SW-620 > 100 µM | IGROV-1 > 100 µM | OVCAR-3 > 100 µM | PC-3 > 100 µM | OVCAR-8 > 100 µM | LOX IMVI > 100 µM | MDA-N > 100 µM | HCT-116 > 100 µM | OVCAR-5 > 100 µM | CAKI-1 > 100 µM | SF-539 > 100 µM | SN12C > 100 µM | BT-549 > 100 µM | Malme-3M > 100 µM | HCC 2998 > 100 µM | NCI/ADR-RES > 100 µM

CN(CCSCCN(C)C(=O)OC(C)(C)C)C(=O)OC(C)(C)C
inactive: M14 > 100 µM | UACC-62 > 100 µM | SW-620 > 100 µM | IGROV-1 > 100 µM | OVCAR-3 > 100 µM | OVCAR-4 > 100 µM | PC-3 > 100 µM | OVCAR-8 > 100 µM | LOX IMVI > 100 µM | MDA-N > 100 µM | HCT-116 > 100 µM | OVCAR-5 > 100 µM | CAKI-1 > 100 µM | SF-539 > 100 µM | SN12C > 100 µM | BT-549 > 100 µM | Malme-3M > 100 µM | HCC 2998 > 100 µM | NCI/ADR-RES > 100 µM

O=[N+]([O-])c1ccc2c(c1)nc(Cc1ccccc1)n2C[C@@H]1CCCN2CCCCC12 (stereo partly specified)
inactive: M14 18.2 µM | UACC-62 19.5 µM | SW-620 40.4 µM | IGROV-1 25.8 µM | OVCAR-3 41.5 µM | OVCAR-4 27.4 µM | PC-3 37.3 µM | OVCAR-8 34.9 µM | LOX IMVI 20.4 µM | MDA-N 20.6 µM | HCT-116 33.7 µM | OVCAR-5 28.5 µM | CAKI-1 28.3 µM | SN12C 48 µM | BT-549 26.7 µM | Malme-3M 14.2 µM | HCC 2998 12.9 µM | NCI/ADR-RES 22.9 µM

COc1ccc(N2C(=O)c3cc([N+](=O)[O-])cnc3S2(=O)=O)cc1
inactive: UACC-62 > 100 µM | SW-620 > 100 µM | IGROV-1 > 100 µM | OVCAR-3 > 100 µM | OVCAR-4 > 100 µM | PC-3 > 100 µM | OVCAR-8 > 100 µM | LOX IMVI > 100 µM | MDA-N > 100 µM | HCT-116 > 100 µM | OVCAR-5 > 100 µM | SN12C > 100 µM | RPMI-8226 > 100 µM | BT-549 > 100 µM | Malme-3M > 100 µM | HCC 2998 > 100 µM | NCI/ADR-RES > 100 µM

N#Cc1c(N)c2c(c(-c3ccccc3)c1-c1ccccc1)C(=O)N(N)C2=O
inactive: M14 > 100 µM | UACC-62 > 100 µM | SW-620 > 100 µM | IGROV-1 60 µM | OVCAR-3 > 100 µM | OVCAR-4 > 100 µM | PC-3 74.6 µM | OVCAR-8 > 100 µM | MDA-N > 100 µM | HCT-116 > 100 µM | OVCAR-5 > 100 µM | CAKI-1 25.2 µM | SF-539 47.1 µM | SN12C > 100 µM | RPMI-8226 32.7 µM | BT-549 > 100 µM | Malme-3M > 100 µM | HCC 2998 > 100 µM | NCI/ADR-RES 56 µM

CCOC(=O)CCCn1nnc(C(=O)OCC)c1C(=O)OCC
inactive: UACC-62 > 100 µM | SW-620 > 100 µM | IGROV-1 > 100 µM | OVCAR-4 > 100 µM | PC-3 > 100 µM | OVCAR-8 > 100 µM | LOX IMVI > 100 µM | MDA-N > 100 µM | HCT-116 > 100 µM | CAKI-1 > 100 µM | SF-539 > 100 µM | SN12C > 100 µM | BT-549 > 100 µM | Malme-3M > 100 µM | HCC 2998 > 100 µM | NCI/ADR-RES > 100 µM

CCOC(=O)c1c[nH]c2c(Sc3ccccc3)nccc2c1=O
inactive: M14 > 100 µM | UACC-62 36.7 µM | SW-620 > 100 µM | IGROV-1 21.7 µM | OVCAR-3 > 100 µM | OVCAR-4 > 100 µM | PC-3 > 100 µM | OVCAR-8 > 100 µM | LOX IMVI 31 µM | MDA-N > 100 µM | HCT-116 73.6 µM | OVCAR-5 > 100 µM | CAKI-1 41.3 µM | SF-539 77.8 µM | SN12C > 100 µM | BT-549 30.7 µM | NCI/ADR-RES > 100 µM

Cc1c(O)nc(/C=C/C(=O)O)nc1C(=O)O
inactive: M14 > 100 µM | UACC-62 > 100 µM | SW-620 > 100 µM | IGROV-1 > 100 µM | OVCAR-3 > 100 µM | OVCAR-4 > 100 µM | PC-3 > 100 µM | OVCAR-8 > 100 µM | LOX IMVI > 100 µM | MDA-N > 100 µM | HCT-116 > 100 µM | OVCAR-5 > 100 µM | CAKI-1 > 100 µM | SF-539 > 100 µM | SN12C > 100 µM | RPMI-8226 > 100 µM | BT-549 > 100 µM | Malme-3M > 100 µM | NCI/ADR-RES > 100 µM
